{"source": "patent US20100221502A1", "about": "“Anthrapyridone Compound and Salt Thereof, Magenta Ink Composition Containing the Anthrapyridone Compound, and Colored Article” (priority 2005, published 2010)", "assay_type_in_all_cases": "physicochemical", "key": {"[1]": {"assay": "Evaluation of hue on glossy paper (L*, a*, b*, C* of inkjet recorded image)", "parameters": "key to Lightness L*: CIELAB L* lightness value; key to Chromaticity a*: CIELAB a* chromaticity value; key to Chromaticity b*: CIELAB b* chromaticity value", "details": "for Chroma C*: C*=((a*)^2+(b*)^2)^1/2; for Chromaticity a* / Chromaticity b* / Lightness L*: ink with 6.0 parts compound", "text": "The compound (Compound Example No. 1) obtained in the above Example 1 was used to prepare a solution of the composition shown in the following Table 2, which was filtrated with a 0.45 μm membrane filter for removing insoluble matter to obtain each water-based ink composition for inkjet recording. And ion-exchanged water was used as water. In addition, the pH of the ink composition was adjusted to pH=8 to 10 with a 25% caustic soda aqueous solution, and water was further added so that the whole weight was 100 parts. Example 5 is the test using the compound obtained in Example 1.\n(§1) Using an ink jet printer (manufactured by Canon Inc., trade name: Pixus 860i), inkjet recording was performed on glossy paper (manufactured by Canon Inc., trade name: Professional Photo Paper PR-101) having an ink image-receiving layer containing porous white inorganic substance and photo paper (glossy) manufactured by SEIKO-EPSON CORPORATION. In inkjet recording, an image pattern was made to obtain gradations of several stages in printing density and a print was made.\nFor the hue and vividness of recorded image, printed recording paper was measured using a Color Calibration Systems (trade name: GRETAG SPM50, manufactured by GretagMacbeth AG) to calculate values of L*, a* and b*, and chroma (C*) showing vividness was calculated from chromaticity (a*, b*) by C*=((a*)^2+(b*)^2)^1/2. The hue was evaluated by comparing with a sample of standard magenta in Japan Color manufactured by JPMA (Industry Association: Japan Printing Machinery Association).\nIn this connection, paper used for standard magenta in Japan Color was Japan Color Standard Paper."}, "[2]": {"assay": "Xenon light fastness test of recorded image", "details": "any of glossy papers of CANON INC. and SEIKO-EPSON CORPORATION", "procedure": "as §1\nUsing a xenon weatherometer Ci4000 (manufactured by ATLAS Electric Devices Co.), pieces of printed testing paper of glossy paper manufactured by Canon, Inc. and glossy paper manufactured by SEIKO-EPSON CORPORATION, on which an air layer was provided and a glass plate having a thickness of 2 mm was set up, were irradiated for 50 hours at an illuminance of 0.36 W/m^2 under the circumstances of a humidity of 60% RH and a temperature of 24° C. Color difference (ΔE) before and after the test was measured and the evaluation was performed on 3 levels."}, "[3]": {"assay": "Ozone gas fastness test of recorded image", "details": "any of glossy papers of CANON INC. and SEIKO-EPSON CORPORATION", "procedure": "Using an ink jet printer (manufactured by Canon Inc., trade name: Pixus 860i), inkjet recording was performed on glossy paper (manufactured by Canon Inc., trade name: Professional Photo Paper PR-101) having an ink image-receiving layer containing porous white inorganic substance and photo paper (glossy) manufactured by SEIKO-EPSON CORPORATION. In inkjet recording, an image pattern was made to obtain gradations of several stages in printing density and a print was made. Using an ozone weatherometer (manufactured by Suga Test Instruments Co., Ltd.), pieces of printed testing paper of glossy paper manufactured by Canon, Inc. and glossy paper manufactured by SEIKO-EPSON CORPORATION were left for 3 hours under the circumstances of an ozone concentration of 12 ppm, a humidity of 60% RH and a temperature of 24° C. Color difference (ΔE) before and after the test was measured and evaluation was performed on 3 levels. [formula] [formula] [formula]"}, "[4]": {"assay": "Moisture fastness test of recorded image", "parameters": "key: ∘: Bleed is not observed.; Δ: Bleed is observed on small degree.; ×: Bleed is observed on large degree", "details": "168 hours, 30° C., 85% RH, bleed by visual observation", "procedure": "as §1\nUsing a thermo-hygrostat (manufactured by OHKEN, Co., LTD), pieces of printed testing paper of glossy paper manufactured by Canon, Inc. and glossy paper manufactured by SEIKO-EPSON CORPORATION were left for 168 hours at a temperature of 30° C. and a humidity of 85% RH. Bleed property before and after the test was determined by visual observation and evaluated on 3 levels.\n∘: Bleed is not observed.\nΔ: Bleed is observed on small degree.\n×: Bleed is observed on large degree."}, "[5]": {"details": "Glossy paper manufactured by Canon Inc."}, "[6]": {"details": "Glossy paper manufactured by SEIKO-EPSON CORPORATION"}, "[7]": {"details": "Glossy paper manufactured by CANON INC."}}, "data": [{"smiles": "Cn1c(=O)cc2c3c(c(Nc4cc(Nc5nc(O)nc(Nc6cc(S(=O)(=O)O)ccc6S(=O)(=O)O)n5)ccc4S(=O)(=O)O)ccc31)C(=O)c1ccccc1-2", "note": "[Comparative Example 1, reference compound]", "values": [{"measurement": "Chroma C*", "setting": "[1]; [5]", "value": 81.3}, {"measurement": "Chromaticity a*", "setting": "[1]; [5]", "value": 81.0}, {"measurement": "Chromaticity b*", "setting": "[1]; [5]", "value": "−6.7"}, {"measurement": "Lightness L*", "setting": "[1]; [5]", "value": 49.8}, {"measurement": "Chroma C*", "setting": "[1]; [6]", "value": 80.4}, {"measurement": "Chromaticity a*", "setting": "[1]; [6]", "value": 79.9}, {"measurement": "Chromaticity b*", "setting": "[1]; [6]", "value": "−9.5"}, {"measurement": "Lightness L*", "setting": "[1]; [6]", "value": 49.5}, {"measurement": "Light fastness (in words)", "setting": "[2]", "value": "has a problem in light fastness"}, {"measurement": "Ozone gas fastness (in words)", "setting": "[3]", "value": "a drawback in ozone gas fastness"}, {"measurement": "Moisture fastness", "setting": "[4]; [7]", "value": "∘"}, {"measurement": "Moisture fastness", "setting": "[4]; [6]", "value": "∘"}]}, {"smiles": "O=C(c1cccc(S(=O)(=O)O)c1)c1c2c3c(c(Nc4cc(Nc5nc(O)nc(Nc6ccccc6S(=O)(=O)O)n5)c(S(=O)(=O)O)cc4S(=O)(=O)O)cc(Oc4ccc(-c5ccc(S(=O)(=O)O)cc5)cc4S(=O)(=O)O)c3[nH]c1=O)C(=O)c1ccccc1-2", "note": "[Example 5 (No. 1)]", "values": [{"measurement": "Chroma C*", "setting": "[1]; [5]", "value": 88.2}, {"measurement": "Chromaticity a*", "setting": "[1]; [5]", "value": 88.2}, {"measurement": "Chromaticity b*", "setting": "[1]; [5]", "value": "−2.9"}, {"measurement": "Lightness L*", "setting": "[1]; [5]", "value": 57.8}, {"measurement": "Chroma C*", "setting": "[1]; [6]", "value": 82.3}, {"measurement": "Chromaticity a*", "setting": "[1]; [6]", "value": 82.3}, {"measurement": "Chromaticity b*", "setting": "[1]; [6]", "value": "−1.7"}, {"measurement": "Lightness L*", "setting": "[1]; [6]", "value": 56.1}, {"measurement": "Moisture fastness", "setting": "[4]; [7]", "value": "∘"}, {"measurement": "Moisture fastness", "setting": "[4]; [6]", "value": "∘"}]}, {"smiles": "O=C(O)c1ccccc1Nc1nc(O)nc(Nc2cc(Nc3cc(Oc4ccc(-c5ccc(S(=O)(=O)O)cc5)cc4S(=O)(=O)O)c4[nH]c(=O)c(C(=O)c5cccc(S(=O)(=O)O)c5)c5c4c3C(=O)c3ccccc3-5)c(S(=O)(=O)O)cc2S(=O)(=O)O)n1", "note": "[Example 6 (No. 8)]", "values": [{"measurement": "Chroma C*", "setting": "[1]; [5]", "value": 82.1}, {"measurement": "Chromaticity a*", "setting": "[1]; [5]", "value": 82.1}, {"measurement": "Chromaticity b*", "setting": "[1]; [5]", "value": 0.5}, {"measurement": "Lightness L*", "setting": "[1]; [5]", "value": 55.4}, {"measurement": "Chroma C*", "setting": "[1]; [6]", "value": 80.5}, {"measurement": "Chromaticity a*", "setting": "[1]; [6]", "value": 80.6}, {"measurement": "Chromaticity b*", "setting": "[1]; [6]", "value": "−2.2"}, {"measurement": "Lightness L*", "setting": "[1]; [6]", "value": 56.1}, {"measurement": "Moisture fastness", "setting": "[4]; [7]", "value": "∘"}, {"measurement": "Moisture fastness", "setting": "[4]; [6]", "value": "∘"}]}, {"smiles": "O=C(O)c1cc(Nc2nc(O)nc(Nc3cc(Nc4cc(Oc5ccc(-c6ccc(S(=O)(=O)O)cc6)cc5S(=O)(=O)O)c5[nH]c(=O)c(C(=O)c6cccc(S(=O)(=O)O)c6)c6c5c4C(=O)c4ccccc4-6)c(S(=O)(=O)O)cc3S(=O)(=O)O)n2)cc(C(=O)O)c1", "note": "[Example 7 (No. 11)]", "values": [{"measurement": "Chroma C*", "setting": "[1]; [5]", "value": 78.6}, {"measurement": "Chromaticity a*", "setting": "[1]; [5]", "value": 78.7}, {"measurement": "Chromaticity b*", "setting": "[1]; [5]", "value": 1.0}, {"measurement": "Lightness L*", "setting": "[1]; [5]", "value": 54.8}, {"measurement": "Chroma C*", "setting": "[1]; [6]", "value": 77.6}, {"measurement": "Chromaticity a*", "setting": "[1]; [6]", "value": 77.4}, {"measurement": "Chromaticity b*", "setting": "[1]; [6]", "value": "−2.6"}, {"measurement": "Lightness L*", "setting": "[1]; [6]", "value": 57.2}, {"measurement": "Moisture fastness", "setting": "[4]; [7]", "value": "∘"}, {"measurement": "Moisture fastness", "setting": "[4]; [6]", "value": "∘"}]}]}
